# Data taken from ChEMBL document CHEMBL4229394 (Bioorg Med Chem Lett, 2018).
# Key:
# GABA-B receptor = GABA-B receptor (Homo sapiens, UniProt O75899+Q9UBS5); experiment: Agonist activity at human GABA-B1/B2 receptor expressed in HEK293/Cre-luc cells assessed as inhibition of forskolin-stimulated cAMP accumulation after 3 hrs by luciferase reporter gene assay; type: cell-based
# HEK293 = experiment: Cytotoxicity against HEK293 cells co-expressing human GABA-B1/B2 receptor and Cre-luc plasmid at 50 to 100 uM after 3 hrs by CellTiter 96 aqueous one solution reagent based assay; type: cell-based; conditions: hek293, 3 h
# [1] = biological target: D(4) dopamine receptor (Homo sapiens) (UniProt P21917); experiment: Inhibition of D4 receptor (unknown origin) by radio ligand displacement assay relative to control; conditions: concentration not given here
# [2] = biological target: 5-hydroxytryptamine receptor 2A (Homo sapiens) (UniProt P28223); experiment: Inhibition of 5-HT2A receptor (unknown origin) by radio ligand displacement assay relative to control; conditions: concentration not given here
# [3] = biological target: 5-hydroxytryptamine receptor 3A (Homo sapiens) (UniProt P46098); experiment: Inhibition of 5-HT3 receptor (unknown origin) by radio ligand displacement assay relative to control; conditions: concentration not given here
# [4] = biological target: Histamine H2 receptor (Homo sapiens) (UniProt P25021); experiment: Inhibition of H2 receptor (unknown origin) by radio ligand displacement assay relative to control; conditions: concentration not given here
# [5] = biological target: Histamine H3 receptor (Homo sapiens) (UniProt Q9Y5N1); experiment: Inhibition of H3 receptor (unknown origin) by radio ligand displacement assay relative to control; conditions: concentration not given here
# [6] = biological target: D(2) dopamine receptor (Homo sapiens) (UniProt P14416); experiment: Inhibition of D2 receptor (unknown origin) by radio ligand displacement assay relative to control; conditions: concentration not given here
# [7] = biological target: Sigma intracellular receptor 2 (Rattus norvegicus) (UniProt Q5U3Y7); experiment: Inhibition of rat sigma-2 receptor by radio ligand displacement assay relative to control; conditions: concentration not given here
# [8] = biological target: Sodium-dependent serotonin transporter (Homo sapiens) (UniProt P31645); experiment: Inhibition of SERT (unknown origin) by radio ligand displacement assay relative to control; conditions: concentration not given here
# [9] = biological target: 5-hydroxytryptamine receptor 7 (Homo sapiens) (UniProt P34969); experiment: Inhibition of 5-HT7 receptor (unknown origin) by radio ligand displacement assay relative to control; conditions: concentration not given here
# [10] = biological target: 5-hydroxytryptamine receptor 1A (Homo sapiens) (UniProt P08908); experiment: Inhibition of 5-HT1A receptor (unknown origin) by radio ligand displacement assay relative to control; conditions: concentration not given here
# [11] = biological target: Alpha-1B adrenergic receptor (Homo sapiens) (UniProt P35368); experiment: Inhibition of alpha-1B adrenergic receptor (unknown origin) by radio ligand displacement assay relative to control; conditions: concentration not given here
# [12] = biological target: Beta-3 adrenergic receptor (Homo sapiens) (UniProt P13945); experiment: Inhibition of beta-3 adrenergic receptor (unknown origin) by radio ligand displacement assay relative to control; conditions: concentration not given here
# [13] = biological target: Muscarinic acetylcholine receptor M2 (Homo sapiens) (UniProt P08172); experiment: Inhibition of M2 receptor (unknown origin) by radio ligand displacement assay relative to control; conditions: concentration not given here
# [14] = biological target: D(1B) dopamine receptor (Homo sapiens) (UniProt P21918); experiment: Inhibition of D5 receptor (unknown origin) by radio ligand displacement assay relative to control; conditions: concentration not given here
# [15] = biological target: Alpha-1D adrenergic receptor (Homo sapiens) (UniProt P25100); experiment: Inhibition of alpha-1D adrenergic receptor (unknown origin) by radio ligand displacement assay relative to control; conditions: concentration not given here
# [16] = biological target: Histamine H4 receptor (Homo sapiens) (UniProt Q9H3N8); experiment: Inhibition of H4 receptor (unknown origin) by radio ligand displacement assay relative to control; conditions: concentration not given here
# [17] = biological target: Mu-type opioid receptor (Homo sapiens) (UniProt P35372); experiment: Inhibition of MOR (unknown origin) by radio ligand displacement assay relative to control; conditions: concentration not given here
# [18] = biological target: 5-hydroxytryptamine receptor 5A (Homo sapiens) (UniProt P47898); experiment: Inhibition of 5-HT5A receptor (unknown origin) by radio ligand displacement assay relative to control; conditions: concentration not given here
# [19] = biological target: Delta-type opioid receptor (Homo sapiens) (UniProt P41143); experiment: Inhibition of DOR (unknown origin) by radio ligand displacement assay relative to control; conditions: concentration not given here
# [20] = biological target: D(1A) dopamine receptor (Homo sapiens) (UniProt P21728); experiment: Inhibition of D1 receptor (unknown origin) by radio ligand displacement assay relative to control; conditions: concentration not given here
# [21] = biological target: D(3) dopamine receptor (Homo sapiens) (UniProt P35462); experiment: Inhibition of D3 receptor (unknown origin) by radio ligand displacement assay relative to control; conditions: concentration not given here
# [22] = biological target: Muscarinic acetylcholine receptor M3 (Homo sapiens) (UniProt P20309); experiment: Inhibition of M3 receptor (unknown origin) by radio ligand displacement assay relative to control; conditions: concentration not given here
# [23] = biological target: Histamine H1 receptor (Homo sapiens) (UniProt P35367); experiment: Inhibition of H1 receptor (unknown origin) by radio ligand displacement assay relative to control; conditions: concentration not given here
# [24] = biological target: Sigma non-opioid intracellular receptor 1 (Rattus norvegicus) (UniProt Q9R0C9); experiment: Inhibition of rat sigma-1 receptor by radio ligand displacement assay relative to control; conditions: concentration not given here
# [25] = biological target: 5-hydroxytryptamine receptor 1B (Homo sapiens) (UniProt P28222); experiment: Inhibition of 5-HT1B receptor (unknown origin) by radio ligand displacement assay relative to control; conditions: concentration not given here
# [26] = biological target: GABA-A receptor; alpha-1/beta-2/gamma-2 (Rattus norvegicus, UniProt P18508+P62813+P63138); experiment: Agonist activity at rat GFP-fused GABA-A alpha1/beta2/gamma2 receptor expressed in human tsA201 cells at -60 mV holding potential by whole-cell voltage clamp method; type: cell-based
# [27] = biological target: Alpha-2A adrenergic receptor (Homo sapiens) (UniProt P08913); experiment: Inhibition of alpha-2A adrenergic receptor (unknown origin) by radio ligand displacement assay relative to control; conditions: concentration not given here
# [28] = biological target: Beta-2 adrenergic receptor (Homo sapiens) (UniProt P07550); experiment: Inhibition of beta-2 adrenergic receptor (unknown origin) by radio ligand displacement assay relative to control; conditions: concentration not given here
# [29] = biological target: Beta-1 adrenergic receptor (Homo sapiens) (UniProt P08588); experiment: Inhibition of beta-1 adrenergic receptor (unknown origin) by radio ligand displacement assay relative to control; conditions: concentration not given here
# [30] = biological target: 5-hydroxytryptamine receptor 2C (Homo sapiens) (UniProt P28335); experiment: Inhibition of 5-HT2C receptor (unknown origin) by radio ligand displacement assay relative to control; conditions: concentration not given here
# [31] = biological target: Muscarinic acetylcholine receptor M5 (Homo sapiens) (UniProt P08912); experiment: Inhibition of M5 receptor (unknown origin) by radio ligand displacement assay relative to control; conditions: concentration not given here
# [32] = biological target: Muscarinic acetylcholine receptor M1 (Homo sapiens) (UniProt P11229); experiment: Inhibition of M1 receptor (unknown origin) by radio ligand displacement assay relative to control; conditions: concentration not given here
# [33] = biological target: Kappa-type opioid receptor (Homo sapiens) (UniProt P41145); experiment: Inhibition of KOR (unknown origin) by radio ligand displacement assay relative to control; conditions: concentration not given here
# [34] = biological target: Sodium-dependent dopamine transporter (Homo sapiens) (UniProt Q01959); experiment: Inhibition of DAT (unknown origin) by radio ligand displacement assay relative to control; conditions: concentration not given here
# [35] = biological target: Sodium-dependent noradrenaline transporter (Homo sapiens) (UniProt P23975); experiment: Inhibition of NET (unknown origin) by radio ligand displacement assay relative to control; conditions: concentration not given here
# [36] = biological target: 5-hydroxytryptamine receptor 6 (Homo sapiens) (UniProt P50406); experiment: Inhibition of 5-HT6 receptor (unknown origin) by radio ligand displacement assay relative to control; conditions: concentration not given here
# [37] = biological target: 5-hydroxytryptamine receptor 1E (Homo sapiens) (UniProt P28566); experiment: Inhibition of 5-HT1E receptor (unknown origin) by radio ligand displacement assay relative to control; conditions: concentration not given here
# [38] = biological target: Alpha-1A adrenergic receptor (Homo sapiens) (UniProt P35348); experiment: Inhibition of alpha-1A adrenergic receptor (unknown origin) by radio ligand displacement assay relative to control; conditions: concentration not given here
# [39] = biological target: Muscarinic acetylcholine receptor M4 (Homo sapiens) (UniProt P08173); experiment: Inhibition of M4 receptor (unknown origin) by radio ligand displacement assay relative to control; conditions: concentration not given here
# [40] = biological target: 5-hydroxytryptamine receptor 1D (Homo sapiens) (UniProt P28221); experiment: Inhibition of 5-HT1D receptor (unknown origin) by radio ligand displacement assay relative to control; conditions: concentration not given here
# [41] = biological target: 5-hydroxytryptamine receptor 2B (Homo sapiens) (UniProt P41595); experiment: Inhibition of 5-HT2B receptor (unknown origin) by radio ligand displacement assay relative to control; conditions: concentration not given here
# GABA-B receptor, sequence (Q9UBS5 whole entry): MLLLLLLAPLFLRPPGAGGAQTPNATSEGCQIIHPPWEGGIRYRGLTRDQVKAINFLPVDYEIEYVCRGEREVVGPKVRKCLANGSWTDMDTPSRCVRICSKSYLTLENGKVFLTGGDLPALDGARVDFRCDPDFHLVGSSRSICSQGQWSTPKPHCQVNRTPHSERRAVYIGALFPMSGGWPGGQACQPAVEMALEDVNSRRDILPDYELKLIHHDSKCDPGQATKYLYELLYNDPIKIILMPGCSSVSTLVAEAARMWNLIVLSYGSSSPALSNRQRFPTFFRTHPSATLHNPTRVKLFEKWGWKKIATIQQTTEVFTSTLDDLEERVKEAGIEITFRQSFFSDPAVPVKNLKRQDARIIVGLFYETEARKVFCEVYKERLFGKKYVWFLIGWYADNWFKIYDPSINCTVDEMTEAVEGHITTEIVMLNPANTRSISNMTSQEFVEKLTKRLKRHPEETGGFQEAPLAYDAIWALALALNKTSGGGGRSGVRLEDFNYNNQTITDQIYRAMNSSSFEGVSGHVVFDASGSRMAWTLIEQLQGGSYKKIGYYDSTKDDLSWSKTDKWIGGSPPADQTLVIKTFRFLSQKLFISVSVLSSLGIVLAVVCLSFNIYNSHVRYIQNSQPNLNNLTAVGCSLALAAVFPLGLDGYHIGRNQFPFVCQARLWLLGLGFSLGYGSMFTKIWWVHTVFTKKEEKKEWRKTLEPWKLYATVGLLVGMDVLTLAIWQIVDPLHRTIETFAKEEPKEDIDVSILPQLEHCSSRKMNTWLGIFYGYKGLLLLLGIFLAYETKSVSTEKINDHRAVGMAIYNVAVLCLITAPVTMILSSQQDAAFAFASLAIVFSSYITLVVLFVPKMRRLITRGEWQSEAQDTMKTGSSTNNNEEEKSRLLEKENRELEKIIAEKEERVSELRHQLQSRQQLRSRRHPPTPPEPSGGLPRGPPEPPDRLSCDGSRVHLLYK
# GABA-B receptor, sequence (O75899 whole entry): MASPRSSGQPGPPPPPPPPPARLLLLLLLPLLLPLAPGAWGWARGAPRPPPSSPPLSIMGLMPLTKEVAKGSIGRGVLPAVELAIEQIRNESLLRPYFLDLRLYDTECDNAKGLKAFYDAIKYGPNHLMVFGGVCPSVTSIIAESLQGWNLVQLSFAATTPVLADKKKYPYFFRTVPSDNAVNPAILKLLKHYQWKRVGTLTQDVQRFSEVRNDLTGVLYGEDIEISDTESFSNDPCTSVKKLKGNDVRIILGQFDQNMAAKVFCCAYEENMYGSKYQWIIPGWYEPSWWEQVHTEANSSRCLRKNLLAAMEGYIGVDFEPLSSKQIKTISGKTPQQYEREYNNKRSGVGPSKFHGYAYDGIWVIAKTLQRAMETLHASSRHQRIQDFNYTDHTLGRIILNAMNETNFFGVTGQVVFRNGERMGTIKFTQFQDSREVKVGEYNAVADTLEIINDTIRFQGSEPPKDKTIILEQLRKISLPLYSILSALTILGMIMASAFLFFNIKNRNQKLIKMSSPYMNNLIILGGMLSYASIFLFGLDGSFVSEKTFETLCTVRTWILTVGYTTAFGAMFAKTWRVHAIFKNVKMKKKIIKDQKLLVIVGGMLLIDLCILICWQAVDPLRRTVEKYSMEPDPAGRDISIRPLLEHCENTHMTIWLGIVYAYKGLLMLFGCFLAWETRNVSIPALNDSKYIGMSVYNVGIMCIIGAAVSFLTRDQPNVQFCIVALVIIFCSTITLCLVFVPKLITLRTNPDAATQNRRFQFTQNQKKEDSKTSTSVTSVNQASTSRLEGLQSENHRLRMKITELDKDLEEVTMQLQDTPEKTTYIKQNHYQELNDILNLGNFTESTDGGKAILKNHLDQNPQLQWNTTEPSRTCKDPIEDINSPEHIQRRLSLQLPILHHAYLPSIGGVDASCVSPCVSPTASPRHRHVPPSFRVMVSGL
# GABA-A receptor; alpha-1/beta-2/gamma-2, sequence (P18508 whole entry, the tested form may be a part): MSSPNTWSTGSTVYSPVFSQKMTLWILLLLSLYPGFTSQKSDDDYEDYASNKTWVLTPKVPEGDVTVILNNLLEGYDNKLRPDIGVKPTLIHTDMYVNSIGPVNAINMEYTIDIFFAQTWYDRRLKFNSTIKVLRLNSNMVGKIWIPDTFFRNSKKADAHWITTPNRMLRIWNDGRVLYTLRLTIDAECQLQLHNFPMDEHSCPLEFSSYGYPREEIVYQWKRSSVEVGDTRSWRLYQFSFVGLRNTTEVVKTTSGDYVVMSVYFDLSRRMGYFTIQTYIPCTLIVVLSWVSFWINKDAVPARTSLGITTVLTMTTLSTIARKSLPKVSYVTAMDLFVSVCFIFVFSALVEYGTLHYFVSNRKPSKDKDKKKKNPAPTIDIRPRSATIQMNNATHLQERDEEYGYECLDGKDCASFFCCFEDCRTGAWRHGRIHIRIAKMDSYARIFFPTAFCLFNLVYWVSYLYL
# GABA-A receptor; alpha-1/beta-2/gamma-2, sequence (P62813 whole entry, the tested form may be a part): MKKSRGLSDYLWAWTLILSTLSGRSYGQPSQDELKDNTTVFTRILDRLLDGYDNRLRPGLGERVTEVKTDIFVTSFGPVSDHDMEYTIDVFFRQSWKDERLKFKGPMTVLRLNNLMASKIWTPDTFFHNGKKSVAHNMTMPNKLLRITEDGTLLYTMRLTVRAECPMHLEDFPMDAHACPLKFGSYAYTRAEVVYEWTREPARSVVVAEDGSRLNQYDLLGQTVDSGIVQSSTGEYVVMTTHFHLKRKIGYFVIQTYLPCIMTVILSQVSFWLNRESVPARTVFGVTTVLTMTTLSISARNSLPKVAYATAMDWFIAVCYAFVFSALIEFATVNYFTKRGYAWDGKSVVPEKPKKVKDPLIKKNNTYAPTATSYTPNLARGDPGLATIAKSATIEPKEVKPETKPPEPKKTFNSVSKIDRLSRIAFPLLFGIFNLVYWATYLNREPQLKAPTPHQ
# GABA-A receptor; alpha-1/beta-2/gamma-2, sequence (P63138 whole entry, the tested form may be a part): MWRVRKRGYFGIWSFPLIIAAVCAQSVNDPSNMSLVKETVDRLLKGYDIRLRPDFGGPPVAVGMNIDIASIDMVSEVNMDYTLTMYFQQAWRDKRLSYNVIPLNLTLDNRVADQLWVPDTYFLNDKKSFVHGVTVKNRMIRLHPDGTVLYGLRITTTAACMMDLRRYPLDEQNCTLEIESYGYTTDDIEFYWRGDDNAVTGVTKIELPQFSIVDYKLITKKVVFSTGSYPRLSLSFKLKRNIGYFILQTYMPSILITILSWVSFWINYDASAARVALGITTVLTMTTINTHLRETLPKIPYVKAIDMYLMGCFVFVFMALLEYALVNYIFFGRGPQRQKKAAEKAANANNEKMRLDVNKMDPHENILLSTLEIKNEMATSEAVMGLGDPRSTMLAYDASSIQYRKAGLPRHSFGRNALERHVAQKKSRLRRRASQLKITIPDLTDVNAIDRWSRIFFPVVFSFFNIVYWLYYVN
# 5-hydroxytryptamine receptor 2A (Homo sapiens), sequence (P28223 whole entry): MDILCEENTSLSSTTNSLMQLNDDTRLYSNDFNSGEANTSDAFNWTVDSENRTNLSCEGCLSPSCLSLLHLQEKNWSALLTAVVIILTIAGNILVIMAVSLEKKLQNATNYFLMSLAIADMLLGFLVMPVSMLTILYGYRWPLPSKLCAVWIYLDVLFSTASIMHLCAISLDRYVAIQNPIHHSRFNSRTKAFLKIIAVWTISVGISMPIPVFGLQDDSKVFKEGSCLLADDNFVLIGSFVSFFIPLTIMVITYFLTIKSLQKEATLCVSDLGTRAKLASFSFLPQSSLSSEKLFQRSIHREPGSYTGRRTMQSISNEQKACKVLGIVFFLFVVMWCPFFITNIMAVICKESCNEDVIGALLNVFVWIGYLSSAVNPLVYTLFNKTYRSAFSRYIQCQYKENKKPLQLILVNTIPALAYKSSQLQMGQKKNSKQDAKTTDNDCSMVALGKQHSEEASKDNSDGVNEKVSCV
# Delta-type opioid receptor (Homo sapiens), sequence (P41143 whole entry): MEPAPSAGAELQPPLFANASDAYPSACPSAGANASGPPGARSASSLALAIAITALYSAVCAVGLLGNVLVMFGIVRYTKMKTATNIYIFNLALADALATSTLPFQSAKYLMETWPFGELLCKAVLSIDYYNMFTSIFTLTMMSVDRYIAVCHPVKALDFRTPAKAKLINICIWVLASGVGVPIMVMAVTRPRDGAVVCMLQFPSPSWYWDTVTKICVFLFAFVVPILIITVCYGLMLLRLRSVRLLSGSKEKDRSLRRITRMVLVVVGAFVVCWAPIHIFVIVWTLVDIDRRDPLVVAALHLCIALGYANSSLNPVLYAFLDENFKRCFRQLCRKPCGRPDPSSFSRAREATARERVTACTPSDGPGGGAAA
# D(4) dopamine receptor (Homo sapiens), sequence (P21917 whole entry): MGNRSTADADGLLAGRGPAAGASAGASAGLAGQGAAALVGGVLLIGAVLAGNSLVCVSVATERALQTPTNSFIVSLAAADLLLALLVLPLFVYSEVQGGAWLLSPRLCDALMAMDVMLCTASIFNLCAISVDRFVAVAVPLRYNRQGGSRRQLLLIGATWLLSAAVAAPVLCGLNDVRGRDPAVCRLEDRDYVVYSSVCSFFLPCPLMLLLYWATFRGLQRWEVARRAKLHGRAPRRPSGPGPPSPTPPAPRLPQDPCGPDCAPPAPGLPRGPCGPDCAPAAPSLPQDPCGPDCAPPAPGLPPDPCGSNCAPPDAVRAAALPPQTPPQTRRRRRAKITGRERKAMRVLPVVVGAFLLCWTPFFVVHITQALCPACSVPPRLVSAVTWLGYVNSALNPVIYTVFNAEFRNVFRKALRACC
# D(1A) dopamine receptor (Homo sapiens), sequence (P21728 whole entry): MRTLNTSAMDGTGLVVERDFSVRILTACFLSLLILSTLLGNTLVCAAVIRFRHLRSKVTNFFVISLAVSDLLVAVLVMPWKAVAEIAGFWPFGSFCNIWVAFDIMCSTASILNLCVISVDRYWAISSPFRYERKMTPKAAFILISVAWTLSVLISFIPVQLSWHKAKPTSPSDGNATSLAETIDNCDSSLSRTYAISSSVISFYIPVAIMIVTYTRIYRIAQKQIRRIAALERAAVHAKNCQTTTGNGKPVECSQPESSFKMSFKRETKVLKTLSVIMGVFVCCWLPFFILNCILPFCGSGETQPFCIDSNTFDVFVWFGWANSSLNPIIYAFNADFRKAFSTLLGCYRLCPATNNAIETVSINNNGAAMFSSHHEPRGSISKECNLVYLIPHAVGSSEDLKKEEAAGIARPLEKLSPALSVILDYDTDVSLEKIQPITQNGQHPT
smiles,measurement,setting,value
CC(C)(C)OC(=O)NC(c1ccccc1)C(F)(F)C(=O)c1ccc2c(c1)OCO2 (stereo unspecified),EC50,GABA-B receptor,> 100 µM
O=C(C12CC3CC(CC(C3)C1)C2)C(F)(F)C(O)c1ccc(Cl)cc1 (stereo unspecified),EC50,GABA-B receptor,> 100 µM
same,Activity,HEK293,Toxic
CC(C)CC(=O)C(F)(F)C(NC(=O)OC(C)(C)C)c1ccccc1 (stereo unspecified),EC50,GABA-B receptor,> 100 µM
CCc1ccc(C(O)C(F)(F)C(=O)C23CC4CC(CC(C4)C2)C3)cc1 (stereo unspecified),EC50,GABA-B receptor,> 100 µM
same,Activity,HEK293,Toxic
O=C1c2ccccc2C(=O)N1CC(O)C(F)(F)C(=O)C12CC3CC(CC(C3)C1)C2 (stereo unspecified),EC50,GABA-B receptor,> 100 µM
CC(=O)c1ccc(C(O)C(F)(F)C(=O)c2ccccn2)cc1 (stereo unspecified),EC50,GABA-B receptor,> 100 µM
CC(C)(C)OC(=O)NC(c1ccccc1)C(F)(F)C(=O)c1ccc2ccccc2c1 (stereo unspecified),inhibition,[1],< 30%
same,inhibition,[2],< 30%
same,inhibition,[3],< 30%
same,inhibition,[4],< 30%
same,inhibition,[5],< 30%
same,inhibition,[6],< 30%
same,inhibition,[7],< 30%
same,inhibition,[8],< 30%
same,inhibition,[9],< 30%
same,inhibition,[10],< 30%
same,inhibition,[11],< 30%
same,inhibition,[12],< 30%
same,inhibition,[13],< 30%
same,EC50,GABA-B receptor,19.4 µM
same,inhibition,[14],< 30%
same,inhibition,[15],< 30%
same,inhibition,[16],< 30%
same,inhibition,[17],< 30%
same,inhibition,[18],< 30%
same,inhibition,[19],< 30%
same,inhibition,[20],< 30%
same,inhibition,[21],< 30%
same,inhibition,[22],< 30%
same,inhibition,[23],< 30%
same,inhibition,[24],< 30%
same,inhibition,[25],< 30%
same,EC50,[26],> 100 µM
same,inhibition,[27],< 30%
same,inhibition,[28],< 30%
same,inhibition,[29],< 30%
same,inhibition,[30],< 30%
same,inhibition,[31],< 30%
same,inhibition,[32],< 30%
same,inhibition,[33],< 30%
same,inhibition,[34],< 30%
same,inhibition,[35],< 30%
same,inhibition,[36],< 30%
same,inhibition,[37],< 30%
same,inhibition,[38],< 30%
same,inhibition,[39],< 30%
same,inhibition,[40],< 30%
same,inhibition,[41],< 30%
O=C(c1ccc2ccccc2c1)C(F)(F)C(NS(=O)(=O)c1ccccc1)c1ccccc1 (stereo unspecified),EC50,GABA-B receptor,32.7 µM
same,EC50,[26],> 100 µM
O=C(c1ccc2ccccc2c1)C(F)(F)C(NCc1ccccc1)c1ccccc1 (stereo unspecified),EC50,GABA-B receptor,91 µM
same,EC50,[26],> 100 µM
O=C(C12CC3CC(CC(C3)C1)C2)C(F)(F)C(O)c1ccccc1 (stereo unspecified),EC50,GABA-B receptor,> 100 µM
same,Activity,HEK293,Toxic
O=C(C12CC3CC(CC(C3)C1)C2)C(F)(F)C(NS(=O)(=O)c1ccccc1)c1ccccc1 (stereo unspecified),EC50,GABA-B receptor,> 100 µM
O=C(c1ccc(Cl)cc1)C(F)(F)C(NCc1ccccc1)c1ccccc1 (stereo unspecified),EC50,GABA-B receptor,57.4 µM
same,EC50,[26],> 100 µM
O=C(C12CC3CC(CC(C3)C1)C2)C(F)(F)C(O)/C=C/c1ccccc1 (stereo unspecified),EC50,[26],> 100 µM
C/C=C/C=C/C(NCc1ccccc1)C(F)(F)C(=O)c1ccc2ccccc2c1 (stereo unspecified),EC50,GABA-B receptor,> 100 µM
CC(=O)c1ccc(C(O)C(F)(F)C(=O)C23CC4CC(CC(C4)C2)C3)cc1 (stereo unspecified),inhibition,[1],< 30%
same,inhibition,[2],< 30%
same,inhibition,[3],< 30%
same,inhibition,[4],< 30%
same,inhibition,[5],< 30%
same,inhibition,[6],< 30%
same,inhibition,[7],< 30%
same,inhibition,[8],< 30%
same,inhibition,[9],< 30%
same,inhibition,[10],< 30%
same,inhibition,[11],< 30%
same,inhibition,[12],< 30%
same,inhibition,[13],< 30%
same,inhibition,[14],< 30%
same,inhibition,[15],< 30%
same,inhibition,[16],< 30%
same,inhibition,[17],< 30%
same,inhibition,[18],< 30%
same,inhibition,[19],< 30%
same,inhibition,[20],< 30%
same,inhibition,[21],< 30%
same,inhibition,[22],< 30%
same,inhibition,[23],< 30%
same,inhibition,[24],< 30%
same,inhibition,[25],< 30%
same,inhibition,[27],< 30%
same,inhibition,[28],< 30%
same,inhibition,[29],< 30%
same,inhibition,[30],< 30%
same,inhibition,[31],< 30%
same,inhibition,[32],< 30%
same,inhibition,[33],< 30%
same,inhibition,[34],< 30%
same,inhibition,[35],< 30%
same,inhibition,[36],< 30%
same,inhibition,[37],< 30%
same,inhibition,[38],< 30%
same,inhibition,[39],< 30%
same,inhibition,[40],< 30%
same,inhibition,[41],< 30%
